Measured values taken from patent US12227482B2, “Compounds and compositions for the treatment of cancer” (The Regents of the University of California, priority 2016, dated 2025).

What was measured:
Type in all cases: cell-based
[1] = tested on: A549 cells; assay: Cell viability (CellTiter-Glo ATP content) in A549 cells; conditions: Homo sapiens, A549, 72 h, 72 hours treatment, cell survival by CellTiter-Glo, 2% fetal bovine serum
Method: (§1) Logarithmically growing A549, LOX and MelJuSo cells (ATCC) were plated in antibiotic-free RPMI medium (Coming) supplemented with 2% fetal bovine serum (Gemini Bio-products) at a density of 5,000 cells per well in clear-bottom 96-well plates. The next day cells were treated (triplicates) with increasing doses of a compound of the present disclosure (dissolved in DMSO) and DMSO vehicle controls (final DMSO concentration of 0.5%) for 72 hours and subsequently assessed for cell viability by measuring ATP content with CellTiter-Glo Luminescent Cell Viability Assay (Promega). Signal intensity was measured on a Glomax™ 96 Microplate Luminometer (Promega) and percent cell survival was calculated based on the reading of vehicle control cells set as 100%.

[2] = tested on: LOX cells; assay: Cell viability (CellTiter-Glo ATP content) in LOX cells; conditions: LOX, 72 h, 72 hours treatment, cell survival by CellTiter-Glo, 2% fetal bovine serum
Method: as §1

[3] = tested on: MelJuSo cells; assay: Cell viability (CellTiter-Glo ATP content) in MelJuSo cells; conditions: Homo sapiens, MEL-JUSO, 72 hours treatment, cell survival by CellTiter-Glo, 2% fetal bovine serum
Method: as §1

Row | Compound | IC50 [1] | IC50 [2] | IC50 [3]
1 | CCCCC1C(c2ccc(Cl)cc2)=NN(c2ccccc2)C1(C)C(=O)NCCOC (centres unmarked) [Compound 58, 4-butyl-3-(4-chlorophenyl)-N-(2-methoxyethyl)-5-methyl-1-phenyl-4,5-dihydro-1H-pyrazole-5-carboxamide] | > 2 µM | 1 to 2 µM | 1 to 2 µM
2 | CCCCC1C(c2ccc(F)cc2)=NN(c2ccccc2)C1(C)C(=O)NCCCN1CCCCC1 (centres unmarked) [Compound 71, 4-butyl-3-(4-fluorophenyl)-5-methyl-1-phenyl-N-(3-(piperidin-1-yl)propyl)-4,5-dihydro-1H-pyrazole-5-carboxamide] | > 2 µM | > 2 µM | > 2 µM
3 | Cn1cc(C2C(c3ccc(F)cc3)=NN(c3ccc(F)cc3F)C2(C)C(=O)NCCCC(C)(C)CO)cn1 (centres unmarked) [Compound 95, 1-(2,4-difluorophenyl)-3-(4-fluorophenyl)-N-(5-hydroxy-4,4-dimethylpentyl)-5-methyl-4-(1-methyl-1H-pyrazol-4-yl)-4,5-dihydro-1H-pyrazole-5-carboxamide] | > 2 µM |  | > 2 µM
4 | CCCCC1C(c2ccc(F)cc2)=NN(c2ccccc2)C1(C)C(=O)NCCCCCO (centres unmarked) [Compound 33, 4-butyl-3-(4-fluorophenyl)-N-(5-hydroxypentyl)-5-methyl-1-phenyl-4,5-dihydro-1H-pyrazole-5-carboxamide] | > 2 µM | 1 to 2 µM | 0.5 to 1 µM
5 | COCCNC(=O)C1(C)C(c2cnn(C)c2)C(c2ccc(F)cc2)=NN1c1ccc(F)cc1F (centres unmarked) [Compound 96, 1-(2,4-difluorophenyl)-3-(4-fluorophenyl)-N-(2-methoxyethyl)-5-methyl-4-(1-methyl-1H-pyrazol-4-yl)-4,5-dihydro-1H-pyrazole-5-carboxamide] | > 2 µM |  | > 2 µM
6 | CCCCC1C(c2ccc(F)cc2)=NN(c2ccccc2)C1(C)C(=O)NCC(C)(C)N(C)C (centres unmarked) [Compound 74, 4-butyl-N-(2-(dimethylamino)-2-methylpropyl)-3-(4-fluorophenyl)-5-methyl-1-phenyl-4,5-dihydro-1H-pyrazole-5-carboxamide] | > 2 µM | > 2 µM | > 2 µM
7 | CCCCC1C(c2ccc(F)cc2)=NN(c2ccccc2)C1(C)C(=O)NCC(C)N(C)C (centres unmarked) [Compound 76, 4-butyl-N-(2-(dimethylamino)propyl)-3-(4-fluorophenyl)-5-methyl-1-phenyl-4,5-dihydro-1H-pyrazole-5-carboxamide] | > 2 µM | > 2 µM | > 2 µM
8 | CC(C)(CO)CCCNC(=O)C1(C)C(c2ccsc2)C(c2ccc(F)cc2)=NN1c1ccc(F)cc1F (centres unmarked) [Compound 85, 1-(2,4-difluorophenyl)-3-(4-fluorophenyl)-N-(5-hydroxy-4,4-dimethylpentyl)-5-methyl-4-(thiophen-3-yl)-4,5-dihydro-1H-pyrazole-5-carboxamide] | 0.25 to 0.5 µM | < 0.25 µM | < 0.25 µM
9 | CCCCC1C(c2ccc(F)cc2)=NN(c2ccccc2)C1(C)C(=O)NCc1cccc(Cl)c1 (centres unmarked) [Compound 39, 4-butyl-N-(3-chlorobenzyl)-3-(4-fluorophenyl)-5-methyl-1-phenyl-4,5-dihydro-1H-pyrazole-5-carboxamide] | > 2 µM | > 2 µM | > 2 µM
10 | CC1(C(=O)NCC(O)CCO)C(c2cccs2)C(c2ccc(F)cc2)=NN1c1ccc(F)cc1F (centres unmarked) [Compound 124, 1-(2,4-difluorophenyl)-N-(2,4-dihydroxybutyl)-3-(4-fluorophenyl)-5-methyl-4-(thiophen-2-yl)-4,5-dihydro-1H-pyrazole-5-carboxamide] | > 2 µM | > 2 µM | > 2 µM
11 | CCCCC1C(c2ccc(F)cc2)=NN(c2ccccc2)C1(C)C(=O)NC(C)(C)CO (centres unmarked) [Compound 37, 4-butyl-3-(4-fluorophenyl)-N-(1-hydroxy-2-methylpropan-2-yl)-5-methyl-1-phenyl-4,5-dihydro-1H-pyrazole-5-carboxamide] | > 2 µM | > 2 µM | > 2 µM
12 | CC1(C(=O)NCCN2CCOCC2)C(c2cccs2)C(c2ccc(F)cc2)=NN1c1ccc(F)cc1F (centres unmarked) [Compound 126, 1-(2,4-difluorophenyl)-3-(4-fluorophenyl)-5-methyl-N-(2-morpholinoethyl)-4-(thiophen-2-yl)-4,5-dihydro-1H-pyrazole-5-carboxamide] | > 2 µM | > 2 µM | > 2 µM
13 | COCCNC(=O)C1(C)C(c2ccoc2)C(c2ccc(F)cc2F)=NN1c1ccc(F)cc1F (centres unmarked) [Compound 130, 1,3-bis(2,4-difluorophenyl)-4-(furan-3-yl)-N-(2-methoxyethyl)-5-methyl-4,5-dihydro-1H-pyrazole-5-carboxamide] | > 2 µM | > 2 µM | 0.5 to 1 µM
14 | CCCCC1C(c2ccc(F)cc2)=NN(c2ccc(Cl)cc2)C1(C)C(=O)NCCCOC (centres unmarked) [Compound 13, 4-butyl-1-(4-chlorophenyl)-3-(4-fluorophenyl)-N-(3-methoxypropyl)-5-methyl-4,5-dihydro-1H-pyrazole-5-carboxamide] | > 2 µM | > 2 µM | > 2 µM
15 | CNC(=O)CNC(=O)C1(C)C(c2cccs2)C(c2ccc(F)cc2)=NN1c1ccc(F)cc1F (centres unmarked) [Compound 123, 1-(2,4-difluorophenyl)-3-(4-fluorophenyl)-5-methyl-N-(2-(methylamino)-2-oxoethyl)-4-(thiophen-2-yl)-4,5-dihydro-1H-pyrazole-5-carboxamide] | > 2 µM | > 2 µM | 1 to 2 µM
16 | CCCCC1C(c2ccc(F)cc2)=NN(c2ccc(C(F)(F)F)cc2)C1(C)C(=O)NCCCC(C)(C)CO (centres unmarked) [Compound 28, 4-butyl-3-(4-fluorophenyl)-N-(5-hydroxy-4,4-dimethylpentyl)-5-methyl-1-(4-(trifluoromethyl)phenyl)-4,5-dihydro-1H-pyrazole-5-carboxamide] | > 2 µM | 1 to 2 µM | 1 to 2 µM
17 | CCCCC1(C)C(c2ccc(F)cc2)=NN(c2ccc(F)cc2F)C1(C)C(=O)NCCOC (centres unmarked) [Compound 88, 4-butyl-1-(2,4-difluorophenyl)-3-(4-fluorophenyl)-N-(2-methoxyethyl)-4,5-dimethyl-4,5-dihydro-1H-pyrazole-5-carboxamide] | > 2 µM | > 2 µM | > 2 µM
18 | CC(C)(CO)CCCNC(=O)C1(C)C(c2ccncc2)C(c2ccc(F)cc2)=NN1c1ccccc1 (centres unmarked) [Compound 21, 3-(4-fluorophenyl)-N-(5-hydroxy-4,4-dimethylpentyl)-5-methyl-1-phenyl-4-(pyridin-4-yl)-4,5-dihydro-1H-pyrazole-5-carboxamide] | > 2 µM | > 2 µM | > 2 µM
19 | CCCCC1C(c2ccc(F)cc2)=NN(c2ccc(Cl)cc2F)C1(C)C(=O)NCCOC (centres unmarked) [Compound 64, 4-butyl-1-(4-chloro-2-fluorophenyl)-3-(4-fluorophenyl)-N-(2-methoxyethyl)-5-methyl-4,5-dihydro-1H-pyrazole-5-carboxamide] | 0.25 to 0.5 µM | < 0.25 µM | < 0.25 µM
20 | CCCCC1C(c2ccc(F)cc2)=NN(c2ccc(Cl)cc2C)C1(C)C(=O)NCCCC(C)(C)CO (centres unmarked) [Compound 29, 4-butyl-1-(4-chloro-2-methylphenyl)-3-(4-fluorophenyl)-N-(5-hydroxy-4,4-dimethylpentyl)-5-methyl-4,5-dihydro-1H-pyrazole-5-carboxamide] | > 2 µM | > 2 µM | > 2 µM
21 | CCCCC1C(c2ccc(Cl)cc2F)=NN(c2ccccc2)C1(C)C(=O)NCCCC(C)(C)CO (centres unmarked) [Compound 53, 4-butyl-3-(4-chloro-2-fluorophenyl)-N-(5-hydroxy-4,4-dimethylpentyl)-5-methyl-1-phenyl-4,5-dihydro-1H-pyrazole-5-carboxamide] | > 2 µM | > 2 µM | > 2 µM
22 | CCCCC1C(c2ccc(F)cc2)=NN(c2ccc(F)cc2F)C1(C)C(=O)NCCC#N (centres unmarked) [Compound 83, 4-butyl-N-(2-cyanoethyl)-1-(2,4-difluorophenyl)-3-(4-fluorophenyl)-5-methyl-4,5-dihydro-1H-pyrazole-5-carboxamide] | 1 to 2 µM | 1 to 2 µM | 0.5 to 1 µM
23 | CCCCC1C(c2ccc(F)cc2)=NN(c2ccc(F)cc2F)C1(C)C(=O)NCCCCC(C)(C)O (centres unmarked) [Compound 4, 4-butyl-1-(2,4-difluorophenyl)-3-(4-fluorophenyl)-N-(5-hydroxy-5-methylhexyl)-5-methyl-4,5-dihydro-1H-pyrazole-5-carboxamide] | 0.5 to 1 µM | 0.5 to 1 µM | 0.5 to 1 µM
24 | CCCCC1C(c2ccc(F)cc2)=NN(c2ccc(F)cc2F)C1(C)C(=O)NCCC(=O)OC (centres unmarked) [Compound 31, methyl 3-(4-butyl-1-(2,4-difluorophenyl)-3-(4-fluorophenyl)-5-methyl-4,5-dihydro-1H-pyrazole-5-carboxamido)propanoate] | 1 to 2 µM | 1 to 2 µM | 0.5 to 1 µM
25 | Cn1cccc1C1C(c2ccc(F)cc2)=NN(c2ccc(F)cc2F)C1(C)C(=O)NCCCC(C)(C)CO (centres unmarked) [Compound 93, 1-(2,4-difluorophenyl)-3-(4-fluorophenyl)-N-(5-hydroxy-4,4-dimethylpentyl)-5-methyl-4-(1-methyl-1H-pyrrol-2-yl)-4,5-dihydro-1H-pyrazole-5-carboxamide] | > 2 µM |  | > 2 µM
26 | COCCNC(=O)C1(C)C(c2cccn2C)C(c2ccc(F)cc2)=NN1c1ccc(F)cc1F (centres unmarked) [Compound 94, 1-(2,4-difluorophenyl)-3-(4-fluorophenyl)-N-(2-methoxyethyl)-5-methyl-4-(1-methyl-1H-pyrrol-2-yl)-4,5-dihydro-1H-pyrazole-5-carboxamide] | > 2 µM |  | > 2 µM
